Source: ChEMBL document CHEMBL1201862, “PubChem BioAssay data set” (2004)
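Following 48 hours of exposure in 96-well plates, responses at five concentrations were used to interpolate endpoints linearly. GI50 is the concentration that inhibits growth by half.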 Active and inactive are the calls of the source. Rule as the data show it: active = GI50 up to about 1.1 µM and inactive = higher. Where a SMILES comes first, the peptide text is derived from it. The star is where a group is joined. Boc = CC(C)(C)OC(=O)*

Assays:
Assay in all cases: inhibition of tumour cell growth, NCI panel, 48 h
[1] = system: SK-MEL-5
[2] = system: KM12
[3] = system: DU-145
[4] = system: 786-0
[5] = system: CAKI-1
[6] = system: M14
[7] = system: HCT-116
[8] = system: HOP-92
[9] = system: NCI/ADR-RES
[10] = system: HT-29
[11] = system: NCI-H226
[12] = system: T47D
[13] = system: MCF7
[14] = system: RXF 393
[15] = system: UO-31
[16] = system: UACC-62
[17] = system: MDA-N
[18] = system: Malme-3M
[19] = system: SF-268
[20] = system: Hs-578T

| Compound | GI50 [1] | GI50 [2] | GI50 [3] | GI50 [4] | GI50 [5] | GI50 [6] | GI50 [7] | GI50 [8] | GI50 [9] | GI50 [10] | GI50 [11] | GI50 [12] | GI50 [13] | GI50 [14] | GI50 [15] | GI50 [16] | GI50 [17] | GI50 [18] | GI50 [19] | GI50 [20] |
| --- | --- | --- | --- | --- | --- | --- | --- | --- | --- | --- | --- | --- | --- | --- | --- | --- | --- | --- | --- | --- |
| CC1=CCC[C@H]2[C@](C)(CC3=CC(=O)C(SCC(C)C)=CC3=O)[C@@H](C)CC[C@]12C | 12.8 µM (inactive) | 11.2 µM (inactive) | 14.7 µM (inactive) | 14 µM (inactive) | 11.3 µM (inactive) | 18.2 µM (inactive) | 12 µM (inactive) | 4.84 µM (inactive) | 16 µM (inactive) | 15.4 µM (inactive) | 11.8 µM (inactive) | 2.25 µM (inactive) | 9.71 µM (inactive) | 9.68 µM (inactive) | 11.7 µM (inactive) | 14.3 µM (inactive) |  |  |  |  |
| Clc1ccccc1NN(Cc1ccncc1)c1ccccc1Cl | 13.9 µM (inactive) | 18 µM (inactive) | 17.5 µM (inactive) | 13.7 µM (inactive) |  | 17.7 µM (inactive) | 13 µM (inactive) | 4.6 µM (inactive) | 13.8 µM (inactive) | 12.6 µM (inactive) | 21 µM (inactive) |  | 22.3 µM (inactive) | 16 µM (inactive) | 24.5 µM (inactive) | 13.2 µM (inactive) | 13.5 µM (inactive) | 17.7 µM (inactive) | 18.1 µM (inactive) | 18.2 µM (inactive) |
| COc1ccc(N[C@H](C[S+]([O-])c2ccc(C)cc2)c2ccc(F)cc2)cc1 (some centres undefined) | 12.9 µM (inactive) | > 100 µM (inactive) | 96.6 µM (inactive) | 65.3 µM (inactive) | > 100 µM (inactive) | 64.3 µM (inactive) | > 100 µM (inactive) |  | 26.9 µM (inactive) | > 100 µM (inactive) |  | 10.3 µM (inactive) | 16.6 µM (inactive) | 48.4 µM (inactive) | > 100 µM (inactive) | 34.4 µM (inactive) | 39.3 µM (inactive) | 31.9 µM (inactive) | 24.7 µM (inactive) |  |
| Sc1nnc(-c2ccccc2Nc2ccccc2-c2nnc(S)n2-c2ccccc2)n1-c1ccccc1 | 23.7 µM (inactive) | 51.6 µM (inactive) | 56.6 µM (inactive) | 45 µM (inactive) | 31.3 µM (inactive) | 40.8 µM (inactive) | 63.1 µM (inactive) | 17.8 µM (inactive) | 84.1 µM (inactive) | 35.5 µM (inactive) | 29.7 µM (inactive) | 23.9 µM (inactive) | 37.2 µM (inactive) | 35.6 µM (inactive) | 44.6 µM (inactive) | 58.3 µM (inactive) | 32.1 µM (inactive) |  | 69.7 µM (inactive) |  |
| c1ccc(-c2nc3ccccc3n3nnnc23)cc1 | > 100 µM (inactive) | > 100 µM (inactive) | > 100 µM (inactive) | 57.1 µM (inactive) |  | > 100 µM (inactive) | > 100 µM (inactive) | > 100 µM (inactive) | > 100 µM (inactive) | > 100 µM (inactive) | > 100 µM (inactive) | 20.2 µM (inactive) | > 100 µM (inactive) | 52.1 µM (inactive) | 0.424 µM (active) | > 100 µM (inactive) | > 100 µM (inactive) | > 100 µM (inactive) | 75.7 µM (inactive) |  |
| CC1(C)CC(=O)C(=CNC(N)=S)C(=O)C1 | > 100 µM (inactive) | > 100 µM (inactive) | > 100 µM (inactive) | > 100 µM (inactive) | > 100 µM (inactive) | > 100 µM (inactive) | > 100 µM (inactive) | > 100 µM (inactive) | > 100 µM (inactive) | > 100 µM (inactive) | > 100 µM (inactive) |  | > 100 µM (inactive) | > 100 µM (inactive) | > 100 µM (inactive) | > 100 µM (inactive) | > 100 µM (inactive) |  | > 100 µM (inactive) | > 100 µM (inactive) |
| COc1cc(Br)cc2c1O[C@H]1C(=O)CC3CC21CCN3C (some centres undefined) | > 100 µM (inactive) | 72.3 µM (inactive) |  | 51.6 µM (inactive) | 74.1 µM (inactive) | > 100 µM (inactive) | 42 µM (inactive) |  | 67.5 µM (inactive) | 42.2 µM (inactive) |  | 23.2 µM (inactive) | 34.1 µM (inactive) |  | 34.9 µM (inactive) | > 100 µM (inactive) | 66.2 µM (inactive) | > 100 µM (inactive) | 80 µM (inactive) | 44.7 µM (inactive) |
| CC(=O)NC1(c2cc3ccccc3s2)CCCCCC1 | 27.1 µM (inactive) | 41.8 µM (inactive) | 51.3 µM (inactive) | 34.7 µM (inactive) | 52.6 µM (inactive) | 42 µM (inactive) | 35.3 µM (inactive) | 59.3 µM (inactive) | 38.3 µM (inactive) | 34.3 µM (inactive) | 42.3 µM (inactive) |  | 37.2 µM (inactive) | 29.6 µM (inactive) | 37.2 µM (inactive) | 31.3 µM (inactive) | 48.4 µM (inactive) |  | 21.3 µM (inactive) |  |
| CC(C)(SCc1ccccc1)C(N)C(=O)O (centres undefined) | > 100 µM (inactive) | > 100 µM (inactive) | > 100 µM (inactive) | > 100 µM (inactive) | > 100 µM (inactive) | > 100 µM (inactive) | > 100 µM (inactive) | > 100 µM (inactive) | > 100 µM (inactive) | > 100 µM (inactive) | > 100 µM (inactive) | > 100 µM (inactive) |  | > 100 µM (inactive) | > 100 µM (inactive) | > 100 µM (inactive) | > 100 µM (inactive) | > 100 µM (inactive) | > 100 µM (inactive) |  |
| CSc1nncc(-c2cc3c(c(SC)n2)CCCC3)n1 | > 100 µM (inactive) | > 100 µM (inactive) | > 100 µM (inactive) | > 100 µM (inactive) | 61.5 µM (inactive) | > 100 µM (inactive) | > 100 µM (inactive) |  | > 100 µM (inactive) | > 100 µM (inactive) | > 100 µM (inactive) |  |  | 47.3 µM (inactive) | > 100 µM (inactive) | > 100 µM (inactive) | > 100 µM (inactive) |  | 26.9 µM (inactive) |  |
| O=C(NN1C(=O)CSC1c1ccco1)c1ccncc1 (centres undefined) | > 100 µM (inactive) | > 100 µM (inactive) | > 100 µM (inactive) | > 100 µM (inactive) | > 100 µM (inactive) | > 100 µM (inactive) | > 100 µM (inactive) | > 100 µM (inactive) | > 100 µM (inactive) | > 100 µM (inactive) | > 100 µM (inactive) | > 100 µM (inactive) | > 100 µM (inactive) | > 100 µM (inactive) | > 100 µM (inactive) | > 100 µM (inactive) | > 100 µM (inactive) | > 100 µM (inactive) | > 100 µM (inactive) |  |
| O=c1[nH]nc(Cc2ccccc2)n1-n1cnnc1 | > 100 µM (inactive) | > 100 µM (inactive) | > 100 µM (inactive) | > 100 µM (inactive) |  | > 100 µM (inactive) | > 100 µM (inactive) | > 100 µM (inactive) | > 100 µM (inactive) | > 100 µM (inactive) |  |  | > 100 µM (inactive) | > 100 µM (inactive) | > 100 µM (inactive) | > 100 µM (inactive) | > 100 µM (inactive) |  | > 100 µM (inactive) |  |
| CC(=O)CCn1c(=S)sc2ccccc21 | 56.8 µM (inactive) | > 100 µM (inactive) | > 100 µM (inactive) | > 100 µM (inactive) | 49.7 µM (inactive) | > 100 µM (inactive) | > 100 µM (inactive) | > 100 µM (inactive) | > 100 µM (inactive) | > 100 µM (inactive) | > 100 µM (inactive) |  | > 100 µM (inactive) | > 100 µM (inactive) | 41.3 µM (inactive) | > 100 µM (inactive) | > 100 µM (inactive) |  | > 100 µM (inactive) | > 100 µM (inactive) |
| CC(=O)Nc1sccc1S(=O)(=O)c1ccc(Cl)cc1 | > 100 µM (inactive) | > 100 µM (inactive) | > 100 µM (inactive) | > 100 µM (inactive) | > 100 µM (inactive) | > 100 µM (inactive) | > 100 µM (inactive) | > 100 µM (inactive) | > 100 µM (inactive) | > 100 µM (inactive) | > 100 µM (inactive) | > 100 µM (inactive) | > 100 µM (inactive) | > 100 µM (inactive) | > 100 µM (inactive) | > 100 µM (inactive) |  | > 100 µM (inactive) | > 100 µM (inactive) | > 100 µM (inactive) |
| Cc1ccc(Oc2cc(C)ccc2P(=O)(O)O)cc1 | > 100 µM (inactive) | > 100 µM (inactive) | > 100 µM (inactive) | > 100 µM (inactive) | > 100 µM (inactive) | > 100 µM (inactive) | > 100 µM (inactive) | > 100 µM (inactive) |  |  | > 100 µM (inactive) |  | > 100 µM (inactive) | > 100 µM (inactive) | > 100 µM (inactive) | > 100 µM (inactive) | > 100 µM (inactive) |  | > 100 µM (inactive) | > 100 µM (inactive) |
| COC(=O)C(Cc1c[nH]c2ccccc12)NC(=O)C(Cc1c[nH]c2ccccc12)NC(=O)C(Cc1c[nH]c2ccccc12)NC(=O)OC(C)(C)C (stereo not drawn) (Boc-Trp-Trp-Trp-OMe; configuration not given here) | 47.9 µM (inactive) | 21.5 µM (inactive) |  | 17.8 µM (inactive) |  | 37.3 µM (inactive) | 16.2 µM (inactive) | 13.2 µM (inactive) |  | 19.2 µM (inactive) | 16.5 µM (inactive) | 4.67 µM (inactive) | > 10 µM (inactive) | 8.93 µM (inactive) | 24.3 µM (inactive) | 18.8 µM (inactive) | 20 µM (inactive) | > 100 µM (inactive) |  | 17.7 µM (inactive) |
